Experiments:
[1] = target: T1, Escherichia coli ω-transaminase (SEQ ID NO: 12) (Escherichia coli, UniProt P42588); assay: ω-transaminase enzyme activity assay, amine substrate plus pyruvate to L-alanine (cell free extract); assay type: biochemical; details: for accepted as substrate as confirmed against the empty vector control: reverse direction, 10 mM substrate, 10 mM pyruvate, 100 μM pyridoxyl 5′ phosphate, pH 7.5, 25° C., 4 h, L-alanine by RP-HPLC; for accepted as substrate, concluded from the reversibility of the ω-transaminase activity: forward (amine-forming) direction, inferred from the reverse assay
T1 construct: His-tag (N); made in house; host or cells: E. coli BL21[DE3], pET21a
T1 sequence (P42588 whole entry): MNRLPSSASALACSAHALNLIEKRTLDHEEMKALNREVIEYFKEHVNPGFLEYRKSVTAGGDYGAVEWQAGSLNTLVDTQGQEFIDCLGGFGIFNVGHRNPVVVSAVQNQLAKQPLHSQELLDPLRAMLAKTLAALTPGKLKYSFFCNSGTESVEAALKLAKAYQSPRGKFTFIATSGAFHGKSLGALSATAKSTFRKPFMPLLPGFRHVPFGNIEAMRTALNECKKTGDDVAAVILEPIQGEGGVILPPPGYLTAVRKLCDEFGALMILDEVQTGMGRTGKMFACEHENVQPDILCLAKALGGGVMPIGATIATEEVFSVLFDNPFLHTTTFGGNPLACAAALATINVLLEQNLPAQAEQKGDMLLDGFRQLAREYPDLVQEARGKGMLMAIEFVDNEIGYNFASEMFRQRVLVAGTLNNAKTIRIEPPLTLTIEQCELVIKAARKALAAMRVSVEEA
Procedure: (§1) A nucleotide sequence encoding an N-terminal His-tag was added to the Chromobacterium violaceum, Pseudomonas aeruginosa, Pseudomonas syringae, Rhodobacter sphaeroide, Escherichia coli and Vibrio fluvialis genes encoding the ω-transaminases of SEQ ID NOs: 8-13, respectively (see FIG. 10) such that N-terminal HIS tagged ω-transaminases could be produced. The modified genes were cloned into a pET21a expression vector under the T7 promoter. Each expression vector was transformed into a BL21[DE3] E. coli host. Each resulting recombinant E. coli strain were cultivated at 37° C. in a 250 mL shake flask culture containing 50 mL LB media and antibiotic selection pressure, with shaking at 230 rpm. Each culture was induced overnight at 16° C. using 1 mM IPTG.
(§2) The pellet from each induced shake flask culture was harvested via centrifugation. Each pellet was resuspended and lysed via sonication. The cell debris was separated from the supernatant via centrifugation and the cell free extract was used immediately in enzyme activity assays.
(§3) Enzyme activity assays in the reverse direction (i.e., 5-aminopentanol to 5-oxopentanol) were performed in a buffer composed of a final concentration of 50 mM HEPES buffer (pH=7.5), 10 mM 5-aminopentanol, 10 mM pyruvate, and 100 μM pyridoxyl 5′ phosphate. Each enzyme activity assay reaction was initiated by adding cell free extract of the ω-transaminase gene product or the empty vector control to the assay buffer containing the 5-aminopentanol and then incubated at 25° C. for 4 h, with shaking at 250 rpm. The formation of L-alanine was quantified via RP-HPLC.
as §1, with “and” for “Rhodobacter sphaeroide,”, “coli” for “coli and Vibrio fluvialis”, “8-10 and 12,” for “8-13,”
as §3, with “cadaverine” for “5-aminopentanol”, “5-aminopentanal)” for “5-oxopentanol)”, “cadaverine,” for “5-aminopentanol,”
(§4) The activity of the N-terminal His-tagged ω-transaminases of SEQ ID NOs: 8, 10-13 (see Example 3, and FIG. 10) for converting N5-acetyl-1,5-diaminopentane to N5-acetyl-5-aminopentanal was assayed using a buffer composed of a final concentration of 50 mM HEPES buffer (pH=7.5), 10 mM N5-acetyl-1,5-diaminopentane, 10 mM pyruvate and 100 μM pyridoxyl 5′ phosphate. Each enzyme activity assay reaction was initiated by adding a cell free extract of the ω-transaminase or the empty vector control to the assay buffer containing the N5-acetyl-1,5-diaminopentane then incubated at 25° C. for 4 h, with shaking at 250 rpm. The formation of L-alanine was quantified via RP-HPLC.
(§5) The activity of the N-terminal His-tagged ω-transaminases of SEQ ID NOs: 8-13 (see Example 3, and FIG. 10) for converting 1-aminopentane to pentanal was assayed using a buffer composed of a final concentration of 50 mM HEPES buffer (pH=7.5), 10 mM 1-aminopentane, 10 mM pyruvate and 100 μM pyridoxyl 5′ phosphate. […]

[2] = tested on: Pseudomonas syringae ω-transaminase (SEQ ID NO: 10); assay: as above; assay type: biochemical; details: for accepted as substrate as confirmed against the empty vector control: reverse direction, 10 mM substrate, 10 mM pyruvate, 100 μM pyridoxyl 5′ phosphate, pH 7.5, 25° C., 4 h, L-alanine by RP-HPLC; for accepted as substrate, concluded from the reversibility of the ω-transaminase activity: forward (amine-forming) direction, inferred from the reverse assay
Procedure: as §1, §2, §3
as §1, with “and” for “Rhodobacter sphaeroide,”, “coli” for “coli and Vibrio fluvialis”, “8-10 and 12,” for “8-13,”
as §3, with “cadaverine” for “5-aminopentanol”, “5-aminopentanal)” for “5-oxopentanol)”, “cadaverine,” for “5-aminopentanol,”
as §4, §5

[3] = tested on: Pseudomonas aeruginosa ω-transaminase (SEQ ID NO: 9); assay: as above; assay type: biochemical; details: for accepted as substrate as confirmed against the empty vector control: reverse direction, 10 mM substrate, 10 mM pyruvate, 100 μM pyridoxyl 5′ phosphate, pH 7.5, 25° C., 4 h, L-alanine by RP-HPLC; for accepted as substrate, concluded from the reversibility of the ω-transaminase activity: forward (amine-forming) direction, inferred from the reverse assay
Procedure: as §1, §2, §3
as §1, with “and” for “Rhodobacter sphaeroide,”, “coli” for “coli and Vibrio fluvialis”, “8-10 and 12,” for “8-13,”
as §3, with “cadaverine” for “5-aminopentanol”, “5-aminopentanal)” for “5-oxopentanol)”, “cadaverine,” for “5-aminopentanol,”
as §4, with “8-13” for “8, 10-13”, “1-aminopentane” for “N5-acetyl-1,5-diaminopentane”, “pentanal” for “N5-acetyl-5-aminopentanal”, “1-aminopentane,” for “N5-acetyl-1,5-diaminopentane,”
as §5, with “1-aminoheptane” for “1-aminopentane”, “heptanal” for “pentanal”, “1-aminoheptane,” for “1-aminopentane,”

[4] = tested on: Rhodobacter sphaeroides ω-transaminase (SEQ ID NO: 11); assay: as above; assay type: biochemical; details: for accepted as substrate as confirmed against the empty vector control: reverse direction, 10 mM substrate, 10 mM pyruvate, 100 μM pyridoxyl 5′ phosphate, pH 7.5, 25° C., 4 h, L-alanine by RP-HPLC; for accepted as substrate, concluded from the reversibility of the ω-transaminase activity: forward (amine-forming) direction, inferred from the reverse assay
Procedure: as §1, §2, §3, §4
as §4, with “8-13” for “8, 10-13”, “1-aminopentane” for “N5-acetyl-1,5-diaminopentane”, “pentanal” for “N5-acetyl-5-aminopentanal”, “1-aminopentane,” for “N5-acetyl-1,5-diaminopentane,”
as §4, with “8-13” for “8, 10-13”, “1-aminoheptane” for “N5-acetyl-1,5-diaminopentane”, “heptanal” for “N5-acetyl-5-aminopentanal”, “1-aminoheptane,” for “N5-acetyl-1,5-diaminopentane,”

[5] = tested on: Vibrio fluvialis ω-transaminase (SEQ ID NO: 13); assay: as above; assay type: biochemical; details: for accepted as substrate as confirmed against the empty vector control: reverse direction, 10 mM substrate, 10 mM pyruvate, 100 μM pyridoxyl 5′ phosphate, pH 7.5, 25° C., 4 h, L-alanine by RP-HPLC; for accepted as substrate, concluded from the reversibility of the ω-transaminase activity: forward (amine-forming) direction, inferred from the reverse assay
Procedure: as §1, §2, §3, §4
as §4, with “8-13” for “8, 10-13”, “1-aminopentane” for “N5-acetyl-1,5-diaminopentane”, “pentanal” for “N5-acetyl-5-aminopentanal”, “1-aminopentane,” for “N5-acetyl-1,5-diaminopentane,”
as §4, with “8-13” for “8, 10-13”, “1-aminoheptane” for “N5-acetyl-1,5-diaminopentane”, “heptanal” for “N5-acetyl-5-aminopentanal”, “1-aminoheptane,” for “N5-acetyl-1,5-diaminopentane,”

[6] = tested on: Chromobacterium violaceum ω-transaminase (SEQ ID NO: 8); assay: as above; assay type: biochemical; details: reverse direction, 10 mM substrate, 10 mM pyruvate, 100 μM pyridoxyl 5′ phosphate, pH 7.5, 25° C., 4 h, L-alanine by RP-HPLC
Procedure: A nucleotide sequence encoding an N-terminal His-tag was added to the genes from Chromobacterium violaceum and Rhodobacter sphaeroides encoding the ω-transaminases of SEQ ID NOs: 8 and 10 respectively (see FIG. 10) such that N-terminal HIS tagged ω-transaminases could be produced. Each of the resulting modified genes was cloned into a pET21a expression vector under control of the T7 promoter and each expression vector was transformed into a BL21[DE3] E. coli host. The resulting recombinant E. coli strains were cultivated at 37° C. in a 250 mL shake flask culture containing 50 mL LB media and antibiotic selection pressure, with shaking at 230 rpm. Each culture was induced overnight at 16° C. using 1 mM IPTG.
as §2
as §3, with “5-aminopentanoate” for “5-aminopentanol”, “glutarate semialdehyde)” for “5-oxopentanol)”, “5-aminopentanoate,” for “5-aminopentanol,”, “pyruvate” for “pyruvate,”, “and” for “and then”, “L-alanine from pyruvate” for “L-alanine”
as §1, §3
as §1, with “and” for “Rhodobacter sphaeroide,”, “coli” for “coli and Vibrio fluvialis”, “8-10 and 12,” for “8-13,”
Enzyme activity assays in the reverse direction (i.e., cadaverine to 5-aminopentanal) were performed in a buffer composed of a final concentration of 50 mM HEPES buffer (pH=7.5), 10 mM cadaverine, 10 mM pyruvate, and 100 μM pyridoxyl 5′ phosphate. […]

[7] = tested on: Chromobacterium violaceum ω-transaminase (SEQ ID NO: 8); assay: as above; assay type: biochemical; details: forward (amine-forming) direction, inferred from the reverse assay
[8] = tested on: acetylputrescine deacetylase from Micrococcus luteus K-11; details: Suzuki et al., 1986; cited from earlier work
gene product of ygjG = gene product of ygjG (Escherichia coli, UniProt P42588); details: Samsonova et al., 2003; cited from earlier work
Sequence of gene product of ygjG (P42588 whole entry): as above

CCCCCCCN [1-aminoheptane]
accepted as substrate as confirmed against the empty vector control [1]: accepted
accepted as substrate as confirmed against the empty vector control [2]: accepted
accepted as substrate as confirmed against the empty vector control [3]: accepted
accepted as substrate as confirmed against the empty vector control [4]: accepted
accepted as substrate as confirmed against the empty vector control [5]: accepted
accepted as substrate as confirmed against the empty vector control [6]: accepted

CCCCCN [1-aminopentane]
accepted as substrate as confirmed against the empty vector control [1]: accepted
accepted as substrate as confirmed against the empty vector control [2]: accepted
accepted as substrate as confirmed against the empty vector control [3]: accepted
accepted as substrate as confirmed against the empty vector control [4]: accepted
accepted as substrate as confirmed against the empty vector control [5]: accepted
accepted as substrate as confirmed against the empty vector control [6]: accepted

NCCCCC=O [5-aminopentanal]
accepted as substrate, concluded from the reversibility of the ω-transaminase activity [1]: accept
accepted as substrate, concluded from the reversibility of the ω-transaminase activity [2]: accept
accepted as substrate, concluded from the reversibility of the ω-transaminase activity [3]: accept
accepted as substrate, concluded from the reversibility of the ω-transaminase activity [7]: accept

NCCCCC(=O)O [5-aminopentanoate]
accepted as substrate as confirmed against the empty vector control [6]: accepted

NCCCCCO [5-aminopentanol]
accepted as substrate as confirmed against the empty vector control [1]: accepted
accepted as substrate as confirmed against the empty vector control [2]: accepted
accepted as substrate as confirmed against the empty vector control [3]: accepted
accepted as substrate as confirmed against the empty vector control [4]: accepted
accepted as substrate as confirmed against the empty vector control [5]: accepted
accepted as substrate as confirmed against the empty vector control [6]: accepted

O=CCCCCO [5-oxopentanol]
accepted as substrate, concluded from the reversibility of the ω-transaminase activity [1]: accept
accepted as substrate, concluded from the reversibility of the ω-transaminase activity [2]: accept
accepted as substrate, concluded from the reversibility of the ω-transaminase activity [3]: accept
accepted as substrate, concluded from the reversibility of the ω-transaminase activity [7]: accept
accepted as substrate, concluded from the reversibility of the ω-transaminase activity [4]: accept
accepted as substrate, concluded from the reversibility of the ω-transaminase activity [5]: accept

CC(=O)NCCCCCN [N5-acetyl-1,5-diaminopentane]
accepted as substrate as confirmed against the empty vector control [1]: accepted
accepted as substrate as confirmed against the empty vector control [2]: accepted
accepted as substrate as confirmed against the empty vector control [4]: accepted
accepted as substrate as confirmed against the empty vector control [5]: accepted
accepted as substrate as confirmed against the empty vector control [6]: accepted

CC(=O)NCCCCC=O [N5-acetyl-5-aminopentanal]
accepted as substrate, concluded from the reversibility of the ω-transaminase activity [1]: accept
accepted as substrate, concluded from the reversibility of the ω-transaminase activity [2]: accept
accepted as substrate, concluded from the reversibility of the ω-transaminase activity [7]: accept
accepted as substrate, concluded from the reversibility of the ω-transaminase activity [4]: accept
accepted as substrate, concluded from the reversibility of the ω-transaminase activity [5]: accept

CC(=O)NCCCCNCCCN [N^8-acetylspermidine]
accepted as substrate [8]: accepts

CC(=O)NCCCCCN [acetylcadaverine]
accepted as substrate [8]: accepts

CC(=O)NCCCCN [acetylputrescine]
accepted as substrate [8]: accepts

NCCCCN [putrescine]
accepted as diamine substrate (gene product of ygjG): accepts

NCCCCNCCCN [spermidine]
accepted as diamine substrate (gene product of ygjG): accepts

From patent US9920339B2, “Methods, reagents and cells for biosynthesizing compounds” (INVISTA North America S.á r.l., priority 2014, dated 2018)
